O=c1cc(-c2ccccc2)oc2cc(O)cc(O)c12
solubility (mole fraction) (in ethanol, 293.15 K): 0.00689
solubility (mole fraction) (in ethanol, 298.15 K): 0.00749
solubility (mole fraction) (in ethanol, 303.15 K): 0.0078
solubility (mole fraction) (in ethanol, 308.15 K): 0.00928
solubility (mole fraction) (in ethanol, 313.15 K): 0.0108
solubility (mole fraction) (in ethanol, 318.15 K): 0.0121
solubility (mole fraction) (in ethanol, 323.15 K): 0.0137
solubility (mole fraction) (in water, 293.15 K): 1.26e-05
solubility (mole fraction) (in water, 298.15 K): 1.86e-05
solubility (mole fraction) (in water, 303.15 K): 2.38e-05
solubility (mole fraction) (in water, 308.15 K): 3.53e-05
solubility (mole fraction) (in water, 313.15 K): 4.61e-05
solubility (mole fraction) (in water, 318.15 K): 6.5e-05
solubility (mole fraction) (in water, 323.15 K): 0.0001

From BigSolDB 2.1
